From paper PMC6271910, “Exploiting Natural Products to Build Metalla-Assemblies: The Anticancer Activity of Embelin-Derived Rh(III) and Ir(III) Metalla-Rectangles” (Molecules, 2014)
Where two headings read alike, the source gives them in different places.

Columns and labels:
[1] = test system: HeLa cells (cervical cancer); assay: MTT assay, HeLa; type: cell-based, human; settings: 48 h, averaged over three experiments, read-out: Half maximum inhibitory concentration (IC50), HeLa
Method: (§1) To understand the effect of these complexes on the proliferation of cancerous and noncancerous cells, MTT assays were carried out following the protocol reported by Wilson et al.. The noncancerous (HEK-293) and the human cancerous cell lines (DU-145, A-549 and HeLa) were grown according to the supplier’s recommendations. All cell lines were treated for 48 h at different concentrations of complexes (0.25 µM, 0.5 µM, 0.75 µM, 1 µM, 5 µM, 10 µM, 25 µM, 50 µM and 100 µM). After treatment, the number of viable cells was estimated using a MTT assay. […] Cells treated with doxorubicin in the same concentration range were considered as controls.
(§2) The anticancer activity of the complex was determined using the 3-(4,5-dimethylthiazol-2-yl)-2,5-diphenyltetrazolium bromide (MTT) assay. First 1 × 10^4 cells per well were seeded in Dulbecco’s modified Eagle’s medium (DMEM, 100 µL) supplemented with 10% fetal bovine serum in each well of 96-well microculture plates and incubated for 24 h at 37 °C in a CO2 incubator. Complexes were diluted to the desired concentrations in culture medium and added to the wells with respective vehicle control. After 48 h of incubation, MTT (10 µL, 5 mg mL^−1) was added to each well and the plates were further incubated for 4 h. Then the supernatant from each well was carefully removed, formazan crystals were dissolved in DMSO (100 µL) and absorbance at 570 nm was recorded.

[2] = test system: DU-145 cells (prostate cancer); assay: MTT assay, DU-145; type: cell-based, human; settings: averaged over three experiments, read-out: Half maximum inhibitory concentration (IC50), DU-145
Method: as §1, §2

CT DNA (calf-thymus DNA) = assay: Thermal denaturation study of CT DNA; type: binding; settings: for ΔTm of CT DNA: incubation 12 h at 37 °C, PE buffer pH 7.4, complex/DNA ratio 1:1, CT DNA alone melts at 59.3 °C
Method: The DNA binding affinity of the synthesized complexes was evaluated through thermal denaturation studies with duplex CT DNA using a modified reported procedure. […]

CT DNA [3] = assay: UV-visible spectroscopic titrations with CT DNA; type: binding, calf; settings: 25 µM complex, KBPES buffer pH 7.0, 25 °C
Description: The mode of the DNA-complex interaction was further studied by UV-visible experiments. The results from these studies will indicate the mode of DNA-complex interaction. The UV-visible spectra of metalla-rectangles 4, 6 and 8, the iridium derivatives, show a prominent absorption band at 210 nm. […] The hyperchromicity of the Soret band of the metalla-rectangles was more evident at 210 nm. A continuous hyperchromicity of the Soret band upon addition of metalla-rectangles 4, 6 and 8 to a CT DNA solution is an indication of electrostatic binding or partial unwinding of the CT DNA [27].
UV-Visible spectroscopic titrations were performed using an ABI Lambda 40 UV/Vis spectrophotometer (Foster City, CA, USA) at 25 °C using 1 cm path length quartz cuvettes. Stock solutions of complex (25 µM) was prepared in DMSO and CT DNA (25 µM) were prepared in KBPES buffer (30 mM Potassium Phosphate with 100 mM KCl, pH 7.0). The quartz cells were thoroughly cleaned with distilled water and followed by nitric acid (~0.1 N) after each experiment. UV-visible absorption titrations were done by adding CT DNA stock solution (25 µM) in KBPES buffer (30 mM Potassium Phosphate with 100 mM KCl, pH 7.0) to the quartz cuvette containing approximately 25 µM complex solutions. Preparation of CT DNA and complex solutions was done on the same day as the experiment. Titrations were performed until the band remained at a fixed wavelength upon successive additions of CT DNA.

[4] = test system: HEK-293 (normal human embryonic kidney cells); assay: MTT assay, HEK-293; type: cell-based; settings: for IC50: 48 h, MTT, noncancerous cells, averaged over three experiments, read-out: Half maximum inhibitory concentration (IC50), HEK-293; for Selectivity for cancerous over noncancerous cells (HEK-293): IC50 on HEK-293 compared with cancer cell lines
Method: as §1, §2

[5] = test system: A-549 cells (lung cancer); assay: MTT assay, A-549; type: cell-based, human
Method: as §1, §2

A-549 cells [6] = assay: Cell cycle assay by flow cytometry (propidium iodide); type: cell-based, human; settings: A-549, 500 nM, 24 h; for Sub G1 (%): control 1.37; for G2/M (%): control 16.37; for S (%): control 17.15; for G0/G1 (%): control 54.62
Method: In order to corroborate the results obtained in the MTT assays and to better understand the action of metalla-rectangles 3 and 8 on cells, the effects on the cell cycle inhibition and the interference in cell proliferations using a standard cell cycle assay were studied. The results obtained are presented in (Table 2). On analyzing the results, it was evident that the cell cycle was inhibited at the subG1 phase with both metalla-rectangles.
Flow cytometric analysis (FACS) was performed to evaluate the distribution of the cells in different cell cycle phases. A-549 cells were incubated with metalla-rectangles 3 and 8 at 500 nM concentration for 24 h. Untreated cells were considered as control sample. Untreated and treated cells were harvested, washed with PBS, fixed in ice cold 70% ethanol and stained with propidium iodide (Sigma Aldrich, St. Louis, MO, USA). Cell cycle was performed by using Becton Dickinson FACS Caliber (Franklin Lakes, NJ, USA).

A-549 cells [7] = assay: Apoptosis assay (annexin-V/propidium iodide flow cytometry); type: cell-based, human; settings: A-549, 500 nM, 48 h; for Early apoptotic (%): control 0.84; for Late apoptotic (%): control 6.18; for Necrotic (%): control 14.61; for Living cells (%): control 78.37; for Total apoptotic cells (%): early + late apoptotic, control 7.02
CT DNA [8] = assay: CD spectroscopic study with CT DNA; type: binding, calf; settings: CT DNA/complex 1:0.5 to 1:1, KBPES buffer pH 7.0, 25 °C
Method: Circular dichroism (CD) studies can provide information on the changes in the DNA conformation upon interactions with small molecules. These changes in the DNA topology are giving useful information on the nature of the DNA-complex interactions. […] These bands are characteristic to the profile of the B form of DNA [24].
Circular dichroism (CD) experiments were performed using a Jasco 815 CD spectropolarimeter (Jasco, Tokyo, Japan). CD spectra were recorded from 230 to 300 nm to find the conformational changes in the CT DNA after interaction with the complexes. For each CD experiment, CT DNA (15 × 10^‒6 M) was used initially. Further, for the characterization of complex‒DNA interaction, the CD spectra were recorded in 1:0.5 and 1:1 CT DNA/complex molar ratios. CD titrations were performed in KBPES buffer (30 mM Potassium Phosphate with 100 mM KCl, pH 7.0) at 25 °C. Each spectrum was recorded three times and the average of three scans was taken.

A-549 cells [9] = assay: Mitochondrial outer membrane permeability assay (MitoTracker Red, confocal microscopy); type: cell-based, human; settings: A-549, 500 nM
Method: The aggregation of mitochondria was reported to occur when cells enter into apoptosis, and accordingly led to the release of cytochrome c into the cytosol, which in turn triggered the cascade pathway to apoptosis. From Figure 6, it was clear that mitochondria were getting bundled with metalla-rectangle 3, indicating the onset of apoptosis in A-549 cells.
Compound [3](CF3SO3)4 (500 nM) with treated and untreated A-549 cells were incubated in a medium containing MitoTracker Red™ (50 nM) for 30 min at culture conditions recommended by the supplier. Cells were washed and fixed with 4% paraformaldehyde for 15 min, and permeabilized with Triton X-100 (0.1%) for each 10 min. The cover glasses after PBS wash were mounted on to the glass slides, sealed with nail polish and observed using laser scanning confocal microscopy (Leica TCS SP5, Heidelberg, Germany). The MitoTracker Red™ was excited using 543 nm laser source and the fluorescence emission signals were collected at 570 nm to 635 nm.

[10] = 48 h, averaged over three experiments, read-out: Half maximum inhibitory concentration (IC50), A-549
[11] = 48 h, read-out: IC50 in A-549 cells

| Molecule | IC50 [1] | IC50 ([2]; 48 h) | ΔTm of CT DNA (CT DNA (calf-thymus DNA)) | Change of the absorption (Soret) band at 210 nm on addition of CT DNA (CT DNA [3]) | IC50 [4] | IC50 [5, 10] | other results |
| --- | --- | --- | --- | --- | --- | --- | --- |
| [(η^5-C5Me5)4Rh4(μ2-4,4'-bipyridine-ĸN)2(μ4-C6HRO4-ĸO)2](CF3SO3)4 [[5](CF3SO3)4] | 1010 ± 300 nM | 4670 ± 200 nM | 7.3 °C | same hyperchromicity | 41300 ± 400 nM | 670 ± 100 nM |  |
| [(η^5-C5Me5)4Ir4(μ2-pyrazine-ĸN)2(μ4-C6HRO4-ĸO)2](CF3SO3)4 [[4](CF3SO3)4] | 4160 ± 300 nM | 16000 ± 400 nM | 6.8 °C | continuous increase of its intensity | 31200 ± 500 nM | 3180 ± 200 nM |  |
| [(η^5-C5Me5)4Ir4(μ2-1,2-bis(4-pyridyl)ethylene-ĸN)2(μ4-C6HRO4-ĸO)2](CF3SO3)4 [[8](CF3SO3)4] | 590 ± 200 nM | 720 ± 200 nM | 12.7 °C | continuous increase of its intensity | 70800 ± 400 nM | 670 ± 400 nM | Sub G1 (%) (A-549 cells [6]): 11.98%; G2/M (%) (A-549 cells [6]): 3.49%; S (%) (A-549 cells [6]): 7.95%; G0/G1 (%) (A-549 cells [6]): 66.54%; Early apoptotic (%) (A-549 cells [7]): 1.58%; Late apoptotic (%) (A-549 cells [7]): 13.04%; Necrotic (%) (A-549 cells [7]): 22.92%; Living cells (%) (A-549 cells [7]): 62.46%; Total apoptotic cells (%) (A-549 cells [7]): 14.62%; Change of the positive CD band of CT DNA (275 nm) (CT DNA [8]): higher hyperchromicity; Selectivity for cancerous over noncancerous cells (HEK-293) [4]: two orders of magnitude; IC50 [5, 11]: ~670 nM |
| [(η^5-C5Me5)4Ir4(μ2-4,4'-bipyridine-ĸN)2(μ4-C6HRO4-ĸO)2](CF3SO3)4 [[6](CF3SO3)4] | 1040 ± 300 nM | 2530 ± 200 nM | 7.9 °C | continuous increase of its intensity | 40300 ± 400 nM | 840 ± 100 nM |  |
| [(η^5-C5Me5)4Rh4(μ2-1,2-bis(4-pyridyl)ethylene-ĸN)2(μ4-C6HRO4-ĸO)2](CF3SO3)4 [[7](CF3SO3)4] | 5750 ± 200 nM | 4980 ± 300 nM | 8.2 °C | same hyperchromicity | 62100 ± 300 nM | 2010 ± 200 nM |  |
| [(η^5-C5Me5)4Rh4(μ2-pyrazine-ĸN)2(μ4-C6HRO4-ĸO)2](CF3SO3)4 [[3](CF3SO3)4] | 520 ± 200 nM | 540 ± 200 nM | 12.9 °C | same hyperchromicity | 62000 ± 500 nM | 500 ± 100 nM | Sub G1 (%) (A-549 cells [6]): 31.97%; G2/M (%) (A-549 cells [6]): 1.35%; S (%) (A-549 cells [6]): 2.87%; G0/G1 (%) (A-549 cells [6]): 56.29%; Early apoptotic (%) (A-549 cells [7]): 4.73%; Late apoptotic (%) (A-549 cells [7]): 23.30%; Necrotic (%) (A-549 cells [7]): 11.57%; Living cells (%) (A-549 cells [7]): 60.40%; Total apoptotic cells (%) (A-549 cells [7]): 28.03%; Total apoptotic cells (%) (A-549 cells [7]; listed as 3): about 28.03%; Change of the positive CD band of CT DNA (275 nm) (CT DNA [8]): slight hyperchromicity; IC50 ([1]; listed as [3]^4+): 500 nM; IC50 ([2]; 48 h, listed as [3]^4+): 500 nM; Melting temperature of CT DNA in the presence of the compound (CT DNA (calf-thymus DNA); CT DNA alone 59.3 °C): 72.2 °C; Selectivity for cancerous over noncancerous cells (HEK-293) [4]: two orders of magnitude; IC50 [5, 11]: ~500 nM; Effect on mitochondria distribution (MitoTracker Red) (A-549 cells [9]): aggregations of mitochondria were observed |
| COc1cccc2c1C(=O)c1c(O)c3c(c(O)c1C2=O)C[C@@](O)(C(=O)CO)C[C@@H]3O[C@H]1C[C@H](N)[C@H](O)[C@H](C)O1 [doxorubicin, reference compound] |  |  | 9.5 °C |  |  |  | IC50 ([1]; Homo sapiens, HeLa): 910 ± 200 nM; IC50 ([2]; Homo sapiens, DU-145, 48 h): 1280 ± 200 nM; IC50 ([5]; Homo sapiens, A549, 48 h, averaged over three experiments, read-out: Half maximum inhibitory concentration (IC50), A-549): 850 ± 100 nM |
